Data as given in paper PMC7010350 (ACS chemical biology, 2019).

Legend:
Type in all cases: physicochemical
[1] = Thermostability, heat treatment at 95 °C for 2 h, LC-MS
[2] = Solubility of the lyophilized peptide on resuspension in water or methanol; details: aqueous suspension relyophilized and resuspended in methanol
[3] = Susceptibility of the disulfide bond to reduction with DTT or β-mercaptoethanol; details: LC-MS

pandonodin
thermally induced unthreading (in words) [1]: only minimal unthreading | solubility in methanol (in words) [2]: readily dissolved | peptide reduced, 20 mM DTT with heating ([3]; 20 mM DTT, 95 °C for 2 h): less than 10% | reduction of the disulfide bond, 20 mM DTT, room temperature ([3]; 20 mM DTT, room temperature 1 h, aqueous peptide 5.8 mg/mL): no reduction products were observed | peptide reduced, 5% β-ME with heating (in words) ([3]; 5% (~641 mM) β-mercaptoethanol, 95 °C for 2 h): a majority of pandonodin was reduced

pandonodin C16A C21A [pandonodin AA]
thermally induced unthreading (in words) [1]: significantly more pandonodin AA unthreaded than did wild-type pandonodin
